The source of these data is patent publication US20110124523A1, “High Throughput Method for Detecting Apoptosis of Embryonic Stages of Metazoan Helminthic Parasites” (INSTITUTE OF LIFE SCIENCES, priority 2009, published 2011).

Molecules are shown by their SMILES. Several values for one entry are separate records, joined by “and”; a condition that tells them apart may be missing. Equal values may be shown once.

The test system of assay [1] is embryonic stages of S. digitata. The assay is described as follows: Presence of cytochrome-c in the cytoplasm, anti cytochrome c-FITC staining. The class given is cell-based, Setaria digitata. The conditions noted are these: 24 hr. The method, then: Adult female filarial worms Setaria digitata were collected from the peritoneum of cattle, slaughtered at a nearby abattoir in sterile Hanks Balanced Salt Solution (HBSS) medium (Sigma H 2387-1L) and transported to the laboratory in a sterile container. The medium containing 1% glucose (Sigma G 7528), Penicillin 100 units/ml, Streptomycin 100 μg/ml (Sigma P 4333). And Amphotericin-B 0.25 μg/ml (Sigma A 2942) was buffered with NaHCO3 (Sigma S 5761). About 5 to 7 worms were taken in a petridish, washed three times in medium, dissected into small pieces in 10 ml of medium under sterile conditions and incubated at 37° C. for 30 minutes to allow the release of embryonic stages (eggs and microfilariae) into the medium. The embryonic stages were harvested into sterile 15 ml. centrifuge tubes and washed three times by centrifuging at 300 g for 10 minutes each with medium and the final pellet was suspended in 1 ml. of RPMI-1640 medium (Sigma R 8005) supplemented with 10% FBS (Sigma F 2442) The number of embryonic stages of S. digitata in the above preparation were counted using light microscope, and the suspension was taken in RPMI-1640 medium containing 10% FBS at 1×10^5 embryonic stages/ml. One ml. each was dispensed into individual wells of a 24 well tissue culture plate. One set of wells was taken as untreated control containing only medium with 10% FBS. […] Motility of the Mf was scored under an inverted microscope. After appropriate treatment and incubation, each set of the cultured embryonic stages of S. digitata were harvested from the 24 well tissue culture plate separately in 15 ml. sterile centrifuge tubes, washed with PBS twice and stained as per requirement following manufacturer's instructions as described below. This was followed by two times washing with PBS and final suspension of the stained embryonic stages was taken in 0.5 ml of sheath fluid (BD Biosciences 342003) before their acquisition in the flow cytometer (BD FACS Calibur, Becten and Dickinson, USA). Analysis was performed on 10,000-acquired events depicted as Dot Plots and Histogram Plots using Cellquest Pro soft ware. All plots were representative of at least 3 experiments. […] After in vitro culture for 24 hours with apoptosis inducing reagents the embryonic stages were harvested in 15 ml. sterile centrifuge tubes and fixed for 60 minutes at 0° C. in 1% paraformaldehyde (Sigma P 6148) in PBS. The suspension was washed first with PBS and then with 1× permeabilisation buffer (eBioscience 00-8333-56) and finally resuspended in 100 μl of 1× permeabilisation buffer at 1×10^5 embryonic stages per ml. This suspension was then incubated for 45 minutes with 20 μl of anti cytochrome c-FITC (eBioscience 11-6601-82). This was followed by washing with PBS twice and analysis by Flow cytometer.

Assay [2] shares this test system. The assay is described as follows: Fragmentation of chromosomal DNA, TUNEL staining. The class given is cell-based, Setaria digitata. Conditions: for GMI (Geometric Mean Intensity) of Fluorescence, TUNEL Staining: 24 hr; for induction of DNA fragmentation (result in words): Mf stages and eggs, TUNEL assay. The method, then: Adult female filarial worms Setaria digitata were collected from the peritoneum of cattle, slaughtered at a nearby abattoir in sterile Hanks Balanced Salt Solution (HBSS) medium (Sigma H 2387-1L) and transported to the laboratory in a sterile container. The medium containing 1% glucose (Sigma G 7528), Penicillin 100 units/ml, Streptomycin 100 μg/ml (Sigma P 4333). And Amphotericin-B 0.25 μg/ml (Sigma A 2942) was buffered with NaHCO3 (Sigma S 5761). About 5 to 7 worms were taken in a petridish, washed three times in medium, dissected into small pieces in 10 ml of medium under sterile conditions and incubated at 37° C. for 30 minutes to allow the release of embryonic stages (eggs and microfilariae) into the medium. The embryonic stages were harvested into sterile 15 ml. centrifuge tubes and washed three times by centrifuging at 300 g for 10 minutes each with medium and the final pellet was suspended in 1 ml. of RPMI-1640 medium (Sigma R 8005) supplemented with 10% FBS (Sigma F 2442) The number of embryonic stages of S. digitata in the above preparation were counted using light microscope, and the suspension was taken in RPMI-1640 medium containing 10% FBS at 1×10^5 embryonic stages/ml. One ml. each was dispensed into individual wells of a 24 well tissue culture plate. One set of wells was taken as untreated control containing only medium with 10% FBS. […] Motility of the Mf was scored under an inverted microscope. After appropriate treatment and incubation, each set of the cultured embryonic stages of S. digitata were harvested from the 24 well tissue culture plate separately in 15 ml. sterile centrifuge tubes, washed with PBS twice and stained as per requirement following manufacturer's instructions as described below. This was followed by two times washing with PBS and final suspension of the stained embryonic stages was taken in 0.5 ml of sheath fluid (BD Biosciences 342003) before their acquisition in the flow cytometer (BD FACS Calibur, Becten and Dickinson, USA). Analysis was performed on 10,000-acquired events depicted as Dot Plots and Histogram Plots using Cellquest Pro soft ware. All plots were representative of at least 3 experiments. The distinctly clustered populations obtained consistently in the Dot plots for the intra uterine embryonic stages of S. digitata (FIG. 1 a) were gated for Mfs (R-1) and eggs (R-2 and R-3) and analyzed for different assays for apoptosis as described below. Presence of fragmentation of chromosomal DNA was detected by TUNEL staining. Briefly, the treated embryonic stages were harvested, fixed with 1% Para formaldehyde followed by washing with PBS and stored in 70% ethanol at −20° C.

Regarding `OO` [H2O2], the “GMI (Geometric Mean Intensity) of Fluorescence, Cyt-c Staining” value (“GMI … Cyt-c Staining” for short) was 62.37 and 67.72 and 65.39 in assay [1] (Eggs, 10 μM); 7.53 and 9.23 and 8.14 in assay [1] (Microfilariae, 10 μM). Further, the “GMI (Geometric Mean Intensity) of Fluorescence, TUNEL Staining” value (“GMI … TUNEL Staining” for short) in assay [2] (Eggs, 10 μM) is 70.85 and 71.36 and 72.56; in assay [2] (Microfilariae, 10 μM), 13.62 and 12.52 and 14.16. In addition, in assay [2], the “induction of DNA fragmentation (result in words)” value is listed as “dose dependent induction of DNA fragmentation”.
Turning to `CC1=CC(=O)c2c(O)cccc2C1=O` [Plumbagin], the “GMI … Cyt-c Staining” value in assay [1] (Eggs, 10 μM) was 70.29 and 76.25 and 71.32; in assay [1] (Microfilariae, 10 μM), 18.69 and 20.32 and 17.56. The “GMI … TUNEL Staining” value in assay [2] (Eggs, 10 μM) was 104.33 and 109.68 and 105.32; in assay [2] (Microfilariae, 10 μM), 40.65 and 38.97 and 45.76. The “induction of DNA fragmentation (result in words)” value in assay [2] is listed as “dose dependent induction of DNA fragmentation”. Further, the “efficiency in induction of apoptosis (comparison in words)” value in assay [2] (Plumbagin compared with H2O2) is listed as “more efficient than H2O2 in induction of apoptosis”.
For `CN[C@@H]1C[C@H]2O[C@@](C)([C@@H]1OC)n1c3ccccc3c3c4c(c5c6ccccc6n2c5c31)C(=O)NC4` [Staurosporine], the “GMI … Cyt-c Staining” value was 54.33 and 61.66 and 57.27 in assay [1] (Eggs, 1 μM); 6.02 and 4.20 in assay [1] (Microfilariae, 1 μM). For the same compound, the “GMI … TUNEL Staining” value in assay [2] (Eggs, 1 μM) is 65.77 and 60.33 and 71.25; in assay [2] (Microfilariae, 1 μM), 10.67 and 10.02 and 12.15.
